Data on 17 molecules can be found in patent US8946426B2, “Substituted bicyclic heterocyclic compounds as gamma secretase modulators” (Janssen Pharmaceuticals, Inc., priority 2009, dated 2015).

Bounds are passed on as bounds.

What is called IC50 is the concentration that inhibits the measured activity by half. Lower therefore signals greater potency.

Test [1] concerns Aβ42. As to the kind of experiment: In vivo efficacy: Aβ42 lowering in brain after single oral dose (Table 8). The settings on record: mouse brain soluble fraction, ELISA, compared to untreated animals. The source says:
(§1) To determine whether acute administration of an Aβ42 lowering agent would reduce Aβ42 levels in vivo, non-transgenic rodents, e.g. mice or rats were used. Alternatively, two to three month old Tg2576 mice expressing APP695 containing the “Swedish” variant can be used or a transgenic mouse model developed by Dr. Fred Van Leuven (K.U.Leuven, Belgium) and co-workers, with neuron-specific expression of a clinical mutant of the human amyloid precursor protein [V7171] (Moechars et al., 1999 J. Biol. Chem. 274, 6483). Young transgenic mice have high levels of Aβ in the brain but no detectable Aβ deposition. At approximately 6-8 months of age, the transgenic mice start to display spontaneous, progressive accumulation of β-amyloid (Aβ) in the brain, eventually resulting in amyloid plaques within the subiculum, hippocampus and cortex. Animals treated with the Aβ42 lowering agent were examined and compared to those untreated or treated with vehicle and brain levels of soluble Aβ42 and total Aβ would be quantitated by standard techniques, for example, using ELISA. Treatment periods varied from hours to days and were adjusted based on the results of the Aβ42 lowering once a time course of onset of effect could be established.
(§2) A typical protocol for measuring Aβ42 lowering in vivo is shown but it is only one of many variations that could be used to optimize the levels of detectable Aβ. For example, Aβ42 lowering compounds were formulated in 20% of Captisol® (a sulfobutyl ether of β-cyclodextrin) in water or 20% hydroxypropyl β cyclodextrin. The Aβ42 lowering agents were administered as a single oral dose or by any acceptable route of administration to overnight fasted animals. After four hours, the animals were sacrificed and Aβ42 levels were analysed.
(§3) Blood was collected by decapitation and exsanguinations in EDTA-treated collection tubes. Blood was centrifuged at 1900 g for 10 min at 4° C. and the plasma recovered and flash frozen for later analysis. The brain was removed from the cranium and hindbrain. The cerebellum was removed and the left and right hemisphere were separated. The left hemisphere was stored at −18° C. for quantitative analysis of test compound levels. The right hemisphere was rinsed with phosphate-buffered saline (PBS) buffer and immediately frozen on dry ice and stored at −80° C. until homogenization for biochemical assays.
(§4) Mouse brains were resuspended in 10 volumes of 0.4% DEA (diethylamine)/50 mM NaCl pH 10 (for non-transgenic animals) or 0.1% 3-[(3-cholamidopropyl)-dimethyl-ammonio]-1-propanesulfonate (CHAPS) in tris buffered saline (TBS) (for transgenic animals) containing protease inhibitors (Roche-11873580001 or 04693159000 per gram of tissue, e.g. for 0.158 g brain, add 1.58 ml of 0.4% DEA. All samples were sonicated for 30 sec on ice at 20% power output (pulse mode). Homogenates were centrifuged at 221.300×g for 50 min. The resulting high speed supernatants were then transferred to fresh tubes and were optionally further purified before the next step. A portion of the supernatant was neutralized with 10% 0.5 M Tris-HCl and this was used to quantify Aβtotal.
(§5) The obtained supernatants were purified with Water Oasis HLB reverse phase columns (Waters Corp., Milford, Mass.) to remove non-specific immunoreactive material from the brain lysates prior subsequent Aβ detection. Using a vacuum manifold, all solutions were passed through the columns at a rate of approximately 1 ml per minute, so the vacuum pressure was adjusted accordingly throughout the procedure. Columns were preconditioned with 1 ml of 100% MeOH, before equilibration with 1 ml of H2O. Non-neutralized brain lysates were loaded onto the columns. The loaded samples were then washed twice with the first wash performed with 1 ml of 5% MeOH, and the second wash with 1 ml of 30% MeOH. Finally, the Aβ was eluted from the columns and into 100×30 mm glass tubes, with a solution of 90% MeOH with 2% NH4OH. […]
In general terms: An ELISA detects its analyte on a solid surface through an enzyme-linked reagent.

The subject of test [2] is Aβtotal. The test is described as follows: Method 1: Aβtotal sandwich ELISA in supernatant of SKNBE2 cells carrying APP 695-wild type (Tables 7a, 7b). It is filed as cell-based. The gist of the method: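 SKNBE2 cells expressing wild-type APP695 were exposed to compound for 18 Hours in Ultraculture with 1% glutamine. Aβtotal in the supernatant was read by 6E10-capture/biotinylated 4G8 sandwich ELISA with a fluorogenic peroxidase read-out, and WST-1 checked toxicity. IC50 came from a 4-parameter fit of percent inhibition or percent of control versus concentration.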

The subject of test [3] is Aβ42. The test is described as follows: Method 1: Aβ42 sandwich ELISA in supernatant of SKNBE2 cells carrying APP 695-wild type (Tables 7a, 7b). It counts as cell-based. The gist of the method:
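IC50 values were derived with a 4-parameter equation, fitting either percent inhibition or percent of compound-free Aβ42 as the control. The Aβ42 came from supernatants of APP695 wild-type SKNBE2 cells treated for 18 hours. It was measured by ELISA with anti-Aβ42 capture, biotinylated 3D6 and TMB absorbance at 450 nm.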

Test [4] relates to Aβtotal. As to the kind of experiment: In vivo efficacy: Aβtotal lowering in brain after single oral dose (Table 8). The settings on record: mouse brain soluble fraction, ELISA, compared to untreated animals.
Text: as §1, §2, §3, §4, §5

Test [5] has as its system Aβtotal. The test is described as follows: Method 2: Aβtotal Alphalisa in supernatant of SKNBE2 cells carrying APP 695-wild type (Table 7c). It is filed as cell-based. Particulars: Method 2, Alphalisa, overnight incubation. The protocol:
(§6) Screening was carried out using SKNBE2 cells carrying the APP 695-wild type, grown in Dulbecco's Modified Eagle's Medium/Nutrient mixture F-12 (DMEM/NUT-mix F-12) (HAM) provided by Invitrogen (cat no. 10371-029) containing 5% Serum/Fe supplemented with 1% non-essential amino acids, 1-glutamine 2 mM, Hepes 15 mM, penicillin 50 U/ml (units/ml) en streptomycin 50 μg/ml. Cells were grown to near confluency.
(§7) The screening was performed using a modification of the assay as described in Citron et al (1997) Nature Medicine 3: 67. Briefly, cells were plated in a 384-well plate at 10^4 cells/well in Ultraculture (Lonza, BE12-725F) supplemented with 1% glutamine (Invitrogen, 25030-024), 1% non-essential amino acid (NEAA), penicillin 50 U/ml en streptomycin 50 μg/ml in the presence of test compound at different test concentrations. The cell/compound mixture was incubated overnight at 37° C., 5% CO2. The next day the media were assayed by two sandwich immuno-assays, for Aβ42 and Aβtotal.
(§8) Aβtotal and Aβ42 concentrations were quantified in the cell supernatant using the Aphalisa technology (Perkin Elmer). Alphalisa is a sandwich assay using biotinylated antibody attached to streptavidin coated donorbeads and antibody conjugated to acceptor beads. In the presence of antigen, the beads come into close proximity. The excitation of the donor beads provokes the release of singlet oxygen molecules that trigger a cascade of energy transfer in the acceptor beads, resulting in light emission. To quantify the amount of Aβ42 in the cell supernatant, monoclonal antibody specific to the C-terminus of Aβ42 (JRF/cAβ42/26) was coupled to the receptor beads and biotinylated antibody specific to the N-terminus of Aβ (JRF/AβN/25) was used to react with the donor beads. To quantify the amount of Aβtotal in the cell supernatant, monoclonal antibody specific to the N-terminus of Aβ (JRF/AβN/25) was coupled to the receptor beads and biotinylated antibody specific to the mid region of Aβ (biotinylated 4G8) was used to react with the donor beads.
(§9) To obtain the values reported in Table 7c, the data were calculated as percentage of the maximum amount of amyloid Beta 42 measured in the absence of the test compound. The sigmoidal dose response curves were analyzed using non-linear regression analysis with percentage of the control plotted against the log concentration of the compound. A 4-parameter equation was used to determine the IC50.
A general note: Bead proximity is the source of the signal in Alpha formats.

For test [6], the system named is Aβ42. As to the kind of experiment: Method 2: Aβ42 Alphalisa in supernatant of SKNBE2 cells carrying APP 695-wild type (Table 7c). The settings on record: Method 2, Alphalisa, overnight incubation. It counts as cell-based. The protocol:
as §6, §7, §8, §9

Where [7] appears, read: Homo sapiens, SKNBE2, Table 7b, averaged IC50, non-linear regression of percentage of control vs log concentration, 4-parameter equation.
Where [8] appears, read: Homo sapiens, Table 7a, SKNBE2 cells, compounds 18 h, XLfit 4-parameter fit of percent inhibition, top/bottom fixed to 100/0, hill slope 1.
[9] abbreviates: Table 7a, SKNBE2 cells, compounds 18 h, XLfit 4-parameter fit of percent inhibition, top/bottom fixed to 100/0, hill slope 1.
Where [10] appears, read: Table 7b, averaged IC50, non-linear regression of percentage of control vs log concentration, 4-parameter equation.

`COc1cccc(-c2nc3c(Nc4ccc(-c5ocnc5C)c(OC)c4)cccn3c2C)c1` [Compound 2]: the “Aβ42 (% Ctrl)_Mean” value in the test on Aβ42 [1] came out at 95 % Ctrl. Also, the half-maximal inhibitory concentration (IC50) with Aβtotal [2] (setting [7]) is over 3000 nM; with Aβtotal [2] (setting [8]) it was over 3000 nM; in the test on Aβ42 [3] (setting [7]), 20 nM; with Aβ42 [3] (setting [8]), 22 nM. In the test with Aβtotal [4], the “Aβtotal (% Ctrl)_Mean” value is listed as 104 % Ctrl.
For `COc1cc(Nc2cccc3c2nc(-c2ccc(F)cc2)n3C(C)C)ccc1-c1cnc(C)o1.Cl.Cl` [Compound 25], the “Aβ42 (% Ctrl)_Mean” value in the test with Aβ42 [1] was determined as 76 % Ctrl. The IC50 in the test with Aβtotal [2] (setting [9]) is over 3000 nM; with Aβtotal [2] (setting [10]) it was over 3000 nM; with Aβ42 [3] (setting [9]) it was 24 nM; in the test on Aβ42 [3] (setting [10]), 23 nM. Further, in the test with Aβtotal [4], the “Aβtotal (% Ctrl)_Mean” value worked out at 96 % Ctrl.
For `COc1cc(Nc2cc(C(F)(F)F)cc3c2nc(-c2ccc(F)cc2)n3C)ccc1-c1cnc(C)o1` [Compound 30], the “Aβ42 (% Ctrl)_Mean” value in the test with Aβ42 [1] is listed as 96 % Ctrl. Further, the concentration for half-maximal inhibition (IC50) was over 10000 nM with Aβtotal [2] (setting [10]) and 35 nM in the test on Aβ42 [3] (setting [10]). Moreover, in the test on Aβtotal [4], the “Aβtotal (% Ctrl)_Mean” value amounted to 92 % Ctrl.
For `COc1cc(Nc2nccc3c2nc(-c2ccc(F)cc2F)n3C)ccc1-c1cnc(C)o1` [Compound 31], the “Aβ42 (% Ctrl)_Mean” value in the test on Aβ42 [1] came out at 91 % Ctrl. The IC50 is over 3000 nM with Aβtotal [2] (setting [9]), over 3000 nM in the test on Aβtotal [2] (setting [10]), 76 nM in the test with Aβ42 [3] (setting [9]) and 78 nM in the test on Aβ42 [3] (setting [10]). Also, the “Aβtotal (% Ctrl)_Mean” value with Aβtotal [4] is listed as 102 % Ctrl.
Take `COc1ccc(C)c(-c2cn3cccc(Nc4ccc(-c5cnc(C)o5)cc4)c3n2)c1` [Compound 40]: the “Aβ42 (% Ctrl)_Mean” value in the test on Aβ42 [1] was determined as 77 % Ctrl. Also, the IC50 in the test on Aβtotal [2] (setting [9]) is over 3000 nM; in the test with Aβtotal [2] (setting [10]), over 3000 nM; in the test on Aβ42 [3] (setting [9]) it was 11 nM; in the test on Aβ42 [3] (setting [10]) it was 12 nM. Moreover, in the test on Aβtotal [4], the “Aβtotal (% Ctrl)_Mean” value was found to be 102 % Ctrl.
Regarding `COc1ccc(C)c(-c2cn3cccc(Nc4ccc(-c5cnc(C)o5)c(F)c4)c3n2)c1` [Compound 41], the “Aβ42 (% Ctrl)_Mean” value in the test with Aβ42 [1] is given as 93 % Ctrl. Further, the IC50 is over 3000 nM in the test on Aβtotal [2] (setting [10]) and 126 nM with Aβ42 [3] (setting [10]). In the test with Aβtotal [4], the “Aβtotal (% Ctrl)_Mean” value turned out to be 87 % Ctrl.
Taken in the same sequence, the figures for `COc1cc(Nc2nccc3c2nc(-c2ccc(F)cc2F)n3C)ccc1-c1ocnc1C` [Compound 54] were 101 % Ctrl, over 10000 nM, 490 nM and 104 % Ctrl.
For `Cc1cc2c(nc(-c3ccc(F)cc3)n2C)c(Nc2ccc(-c3cnc(C)o3)cc2)n1` [Compound 58], in that order: 89 % Ctrl, over 10000 nM, 240 nM and 105 % Ctrl.
For `COc1cc(Nc2nc(C)cc3c2nc(-c2ccc(F)cc2)n3C)ccc1-c1cnc(C)o1` [Compound 59], in that order: 97 % Ctrl, over 3000 nM, 72 nM and 95 % Ctrl.
With `COc1cccc(-c2nc3c(Nc4ccc(-c5cnc(C)o5)c(OC)c4)cccc3n2C)c1` [Compound 63], the “Aβ42 (% Ctrl)_Mean” value with Aβ42 [1] stood at 56 % Ctrl. The IC50 in the test on Aβtotal [2] (setting [10]) is over 3000 nM; in the test with Aβ42 [3] (setting [10]), 11 nM. Moreover, the “Aβtotal (% Ctrl)_Mean” value with Aβtotal [4] is given as 90 % Ctrl.
For `COc1cc(Nc2ccc(-c3cnc(C)o3)c(OC)c2)c2nc(-c3ccc(F)cc3)n(C)c2c1` [Compound 95], in that order: 47 % Ctrl, over 3000 nM, 23 nM and 88 % Ctrl.
Regarding `Cc1ncc(-c2ccc(Nc3cc(F)cn4cc(-c5ccc(F)cc5C)nc34)cn2)o1` [Compound 171], the half-inhibitory concentration (IC50) in the test with Aβtotal [5] is over 10000 nM; in the test with Aβ42 [6], 38 nM; in the test on Aβtotal [2] (setting [10]), over 3000 nM; in the test with Aβ42 [3] (setting [10]), 20 nM.
Taken in the same sequence, the figures for `Cc1cn2cccc(Nc3ccc(-c4cnc(C)o4)nc3)c2n1` [Compound 172] were over 10000 nM, 661 nM, over 3000 nM and 2090 nM.
Taken in the same sequence, the figures for `Cc1ncc(-c2ccc(Nc3cccn4c(C)c(-c5ccccc5Cl)nc34)cn2)o1` [Compound 173] were over 10000 nM, 7 nM, over 3000 nM and 9 nM.
Taken in the same sequence, the figures for `COCCc1c(-c2ccc(F)cc2)nc2c(Nc3ccc(-c4cnc(C)o4)c(OC)c3)cccn12` [Compound 174] were over 10000 nM, 22 nM, over 3000 nM and 10 nM.
With `COc1cc(Nc2cc(C(C)C)nc3c2nc(-c2ccc(F)cc2)n3C)ccc1-c1cnc(C)o1` [Compound 190], the IC50 in the test on Aβtotal [5] is over 10000 nM; with Aβ42 [6] it was 10 nM; with Aβtotal [2] (setting [10]) it was over 3000 nM; in the test on Aβ42 [3] (setting [10]) it was 5 nM.
For `COc1cc(Nc2cc(C#N)cn3cc(CC(C)C)nc23)ccc1-c1ocnc1C` [Compound 202], in that order: 8510 nM, 245 nM, over 3000 nM and 135 nM.
